According to article PMC12024213, “Mechanism Insight of Cell Death Signaling by Thymol Derivatives on Trypanosomatidae Protozoan Parasites” (Antibiotics, 2025):
≈ marks a conversion by molar mass, not a printed value. Read-outs that look alike come from different tables or passages of the source.

How the values were obtained:
[1] = alamarBlue assay on T. cruzi epimastigotes; assay type: cell-based, Trypanosoma cruzi; settings: mouse; CC50 J774.A1 / IC50 T. cruzi epimastigotes; read-out: Selectivity Trypanosoma SI (CC50/IC50)
Procedure: (§1) In a 96-well plate, a serial dilution of the tested derivatives was performed in liver infusion tryptose medium supplemented with 10% heat inactivated fetal bovine serum. Later, 100 µL of 5 × 10^5 cells/mL of epimastigotes was added to each well. Afterwards, 20 µL of alamarBlue® was added to each well, and the plate was maintained at 26 °C for 72 h.
(§2) Cytotoxicity effect of the tested derivatives was conducted using macrophages of the murine cell line J774.A1 (American Type Culture Collection #TIB-67, city, country), as previously described. The cells were maintained in DMEM at 37 °C in a 5% CO2 humidified incubator. All the plates containing alamarBlue® were analyzed using a plate reader EnSpire Multimode Plate Reader® at excitation and emission wavelengths of 570 and 585 nm, respectively (PerkinElmer, ThermoFisher Scientific, Madrid, Spain). The IC50 (concentrations able to inhibit 50% of parasites), IC90 (concentrations able to inhibit 90% of parasites), and CC50 (concentration able to inhibit 50% of murine macrophages) values were determined for each compound by nonlinear regression using GraphPad software.

T. cruzi epimastigotes = test: alamarBlue assay on T. cruzi epimastigotes; assay type: cell-based, Trypanosoma cruzi; settings: mean ± SD, triplicates
Procedure: as §1, §2

[2] = Intramacrophagic stage assay, T. cruzi in J774.A1 macrophages; assay type: cell-based, Trypanosoma cruzi; settings: mouse; CC50 J774.A1 / IC50 intracellular T. cruzi; read-out: Selectivity Trypanosoma SI (CC50/IC50)
Procedure: (§3) Briefly, in a 96-well plate, macrophages from the J774.A1 cell line were seeded at a final concentration of 2 × 10^5 cells/mL in Dulbecco’s Modified Eagle Medium (DMEM) and maintained at 37 °C in a 5% CO2 atmosphere until fully adhesion. Cells were infected either with L. amazonensis promastigotes (at a ratio of 1:10) or epimastigotes of T. cruzi (at a ratio of 1:7) (macrophage: parasite) and incubated at 37 °C in 5% CO2 for 24 h for Leishmania and 48 h for Trypanosoma. After infection, plates were washed using DMEM to eliminate external parasites. Subsequently, infected macrophages were treated with different concentrations of active compounds for 24 h. Later, macrophages were lysed using 30 μL of medium, Schneider for Leishmania, and in liver infusion tryptose for Trypanosoma, containing 0.05% of sodium dodecyl sulfate (SDS) for 30 s under agitation. Afterwards, 170 μL of the appropriated medium was derivatives added to each well to give a final volume of 200 μL. Subsequently, 10% of alamarBlue® was added into each well and the plate was incubated at 26 °C for 72 h.
as §2

intramacrophage T. cruzi = test: as above; assay type: cell-based, Trypanosoma cruzi; settings: Trypanosoma cruzi; intramacrophage stage in J774.A1, 24 h treatment; mean ± SD; read-out: T. cruzi Intracellular IC50
Procedure: as §3, §2

[3] = Cytotoxicity assay on murine macrophages (alamarBlue); assay type: cell-based; settings: mouse, mean ± SD
Procedure: as §2

L. infantum = test system: L. infantum; parameters: method as in PMID 31151304; settings: cited from earlier work
[4] = test system: promastigote stage of L. tropica; parameters: method as in PMID 37595813; settings: cited from earlier work
[5] = test system: L. amazonensis promastigotes; test: alamarBlue assay on L. amazonensis promastigotes; assay type: cell-based, Leishmania amazonensis; settings: mean ± SD, triplicates
Procedure: (§4) The assay was conducted using the alamarBlue® method as previously described. Briefly, promastigotes of L. amazonensis were grown at 26 °C in Schneider’s medium (US Biological, Life sciences) and supplemented with 10% heat-inactivated fetal bovine serum and 0.04% of sodium bicarbonate. In a 96-well microtiter plates (Corning™, Corning, NY, USA) a serial dilutions of thymol derivatives were first prepared, and later, 10^6 parasites/mL were added into each well. Subsequently, 10% of alamarBlue® was added to the entire plate. The plates were incubated for 72 h at 26 °C.
as §2

[6] = alamarBlue assay on L. amazonensis promastigotes; assay type: cell-based, Leishmania amazonensis; settings: mouse; CC50 J774.A1 / IC50 L. amazonensis promastigotes; read-out: Selectivity Leishmania SI (CC50/IC50)
Procedure: as §4, §2

[7] = test system: promastigote stage of L. major; parameters: method as in PMID 37595813; settings: cited from earlier work
L. amazonensis = test system: L. amazonensis; parameters: method as in PMID 28509873; settings: cited from earlier work
L. chagasi = test system: L. chagasi; parameters: method as in PMID 20428679; settings: cited from earlier work
[8] = test system: amastigote stage of L. infantum and L. chagasi; parameters: method as in PMID 25281268; settings: cited from earlier work
[9] = test system: promastigote stage of L. infantum and L. chagasi; parameters: method as in PMID 25281268; settings: cited from earlier work
[10] = Intramacrophagic stage assay, L. amazonensis in J774.A1 macrophages; assay type: cell-based, Leishmania amazonensis; settings: mouse; CC50 J774.A1 / IC50 intracellular L. amazonensis; read-out: Selectivity Leishmania SI (CC50/IC50)
Procedure: as §3, with “fully adhesion. […] After infection,” for “fully adhesion. Cells were infected either with L. amazonensis promastigotes (at a ratio of 1:10) or epimastigotes of T. cruzi (at a ratio of 1:7) (macrophage: parasite) and incubated at 37 °C in 5% CO2 for 24 h for Leishmania and 48 h for Trypanosoma. After infection,”, “72 h. Cytotoxicity effect of the tested derivatives was conducted using macrophages of the murine cell line J774.A1 (American Type Culture Collection #TIB-67, city, country), as previously described. The cells were maintained in DMEM at 37 °C in a 5% CO2 humidified incubator.” for “72 h.”

[11] = test system: intramacrophage L. amazonensis; test: as above; assay type: cell-based, Leishmania amazonensis; settings: Leishmania amazonensis; intramacrophage stage in J774.A1, 24 h treatment; mean ± SD; read-out: L. amazonensis Intracellular IC50
Procedure: as §3, with “fully adhesion. […] After infection,” for “fully adhesion. Cells were infected either with L. amazonensis promastigotes (at a ratio of 1:10) or epimastigotes of T. cruzi (at a ratio of 1:7) (macrophage: parasite) and incubated at 37 °C in 5% CO2 for 24 h for Leishmania and 48 h for Trypanosoma. After infection,”, “72 h. Cytotoxicity effect of the tested derivatives was conducted using macrophages of the murine cell line J774.A1 (American Type Culture Collection #TIB-67, city, country), as previously described. The cells were maintained in DMEM at 37 °C in a 5% CO2 humidified incubator.” for “72 h.”

[12] = Trypanosoma cruzi, 72 h, epimastigotes, alamarBlue, 72 h at 26 °C, read-out: T. cruzi Epimastigote IC50
[13] = Leishmania amazonensis, 72 h, promastigotes, alamarBlue, 72 h at 26 °C, read-out: L. amazonensis Promastigote IC50
[14] = epimastigotes, alamarBlue, 72 h at 26 °C, read-out: T. cruzi Epimastigote IC50

Structure (SMILES) | selectivity ratio [1] | IC50 (T. cruzi epimastigotes; [12]) [µM] | CC50 ([3]; J774.A1 macrophage cell line) [µM] | IC50 [5, 13] [µM] | selectivity ratio [6] | other results
O=C(Cn1ccnc1[N+](=O)[O-])NCc1ccccc1 [B, Benznidazole, reference compound] | 58 | 6.9 ± 0.8 | 399.9 ± 1.4 |  |  | selectivity ratio [2]: 148; IC50 (intramacrophage T. cruzi): 2.7 ± 0.4 µM
Cc1ccc(C(C)C)c(O)c1 [Compound 1, thymol] | > 1.5 | 206 ± 2.8 | > 300 | 318 ± 21.4 | > 0.9 | IC50 against L. infantum (L. infantum): 7.2 µg/mL (≈ 47.9 µM); activity against promastigote stage of L. tropica [4]: inactive; activity against promastigote stage of L. major [7]: inactive; IC50 against L. amazonensis (L. amazonensis): 26.8 µg/mL (≈ 178 µM); IC50 against L. chagasi (L. chagasi): 28.0 µg/mL (≈ 186 µM)
CC(=O)Oc1cc(C)ccc1C(C)C [Derivative 2, thymyl acetate] |  | > 350 |  | > 350 |  | EC50 against amastigote stage [8]: 10.95 µg/mL; EC50 against promastigote stage [9]: 9.07 µg/mL
Cc1ccc(C(C)C)c(OC(=O)CCl)c1 [Derivative 3, thymyl chloroacetate] | > 6.1 |  |  |  | > 3.8 | IC50 (T. cruzi epimastigotes; Trypanosoma cruzi, epimastigotes, alamarBlue, 72 h at 26 °C, read-out: T. cruzi Epimastigote IC50): 49.5 ± 3.2 µM; IC50 ([5]; Leishmania amazonensis, promastigotes, alamarBlue, 72 h at 26 °C, read-out: L. amazonensis Promastigote IC50): 78.8 ± 15.9 µM; CC50 ([3]; murine macrophages J774.A1): > 300 µM
Cc1ccc(C(C)C)c(OCC(=O)OC(=O)CCl)c1 [Derivative 4, 2-thymyl-2′-(chloro)-acetic anhydride] | 0.9 | 124 ± 6 | 120.9 ± 0.4 | 148 ± 10 | 0.8 | 
CCCC(=O)Oc1cc(C)ccc1C(C)C [Derivative 5, thymyl butyrate] | > 1.4 | 150 to 250 | > 300 | 150 to 250 | > 1.4 | IC50 (T. cruzi epimastigotes; [14]): 211 ± 7.3 µM; IC50 ([5]; promastigotes, alamarBlue, 72 h at 26 °C, read-out: L. amazonensis Promastigote IC50): 216 ± 7.5 µM
Cc1ccc(C(C)C)c(OC(=O)CCC(=O)O)c1 [Derivative 6, thymyl hemisuccinate] |  | > 350 |  | > 350 |  | 
Cc1ccc(C(C)C)c(OC(=O)c2ccccc2)c1 [Derivative 7, thymyl benzoate] | > 4.5 | 66 ± 1.7 | > 300 | 56 ± 5.6 | > 5.4 | EC50 against amastigote stage [8]: 15.09 µg/mL (≈ 59.3 µM); EC50 against promastigote stage [9]: 8.67 µg/mL (≈ 34.1 µM)
Cc1ccc(C(C)C)c(OC(=O)c2ccc([N+](=O)[O-])cc2)c1 [Derivative 8, thymyl-4-nitrobenzoate] | > 6.8 | 50 to 150 | > 300 | 76.4 ± 6.2 | > 3.9 | IC50 (T. cruzi epimastigotes; [14]): 44.4 ± 2.5 µM
Cc1ccc(C(C)C)c(OC(=O)Oc2ccc([N+](=O)[O-])cc2)c1 [Derivative 11, thymyl-4-nitrophenylcarbonate] | > 4.5 | 66.9 ± 3.8 | > 300 | 56.9 ± 7.2 | > 5.2 | 
Cc1ccc(C(C)C)c(OC(=O)N(C)C)c1 [Derivative 12, thymyl N,N-dimethyl carbamate] | > 1.9 |  |  |  | > 1.3 | IC50 (T. cruzi epimastigotes; Trypanosoma cruzi, 72 h, read-out: T. cruzi Epimastigote IC50, epimastigotes, alamarBlue, 72 h at 26 °C): 150 to 250 µM; IC50 (T. cruzi epimastigotes; read-out: T. cruzi Epimastigote IC50, epimastigotes, alamarBlue, 72 h at 26 °C): 158 ± 2.9 µM; IC50 ([5]; Leishmania amazonensis, 72 h, read-out: L. amazonensis Promastigote IC50, promastigotes, alamarBlue, 72 h at 26 °C): 150 to 250 µM; IC50 ([5]; read-out: L. amazonensis Promastigote IC50, promastigotes, alamarBlue, 72 h at 26 °C): 229 ± 21.4 µM; CC50 ([3]; murine macrophages J774.A1): > 300 µM
CCCCCCCCCCCCCCCCOP(=O)([O-])OCC[N+](C)(C)C [M, Miltefosine, reference compound] |  |  | 72.2 ± 8.9 | 6.5 ± 0.3 | 11.1 | selectivity ratio [10]: 23.3; IC50 [11]: 3.1 ± 0.3 µM
